Results: BindingDB's records for doi:10.1016/S1074-5521(02)00281-8 (Massachusetts Institute of Technology, 2002)
Starred links: 1 amine or outer side, 2 acyl side, 3 side chain; linkers in the order of their positions; H or OH if unused. Positions of bridges follow the written chain, without caps; N, C: chain ends. Non-standard residues stand in square brackets, D forms with d. Residues, ends and D or L forms follow the SMILES beside them. Chains are numbered I, II in the order given. Actinocin(9to1) = Cc1c2oc3c(C)ccc(C(=O)[*:1])c3nc-2c(C(=O)[*:2])c(N)c1=O; NMeV = CN[C@H](C(=O)O)C(C)C; Sar = CNCC(=O)O

Target: T1, Dolichyl-diphosphooligosaccharide--protein glycosyltransferase subunit 1 (Saccharomyces cerevisiae, UniProt P41543)
T1 sequence (P41543 whole entry): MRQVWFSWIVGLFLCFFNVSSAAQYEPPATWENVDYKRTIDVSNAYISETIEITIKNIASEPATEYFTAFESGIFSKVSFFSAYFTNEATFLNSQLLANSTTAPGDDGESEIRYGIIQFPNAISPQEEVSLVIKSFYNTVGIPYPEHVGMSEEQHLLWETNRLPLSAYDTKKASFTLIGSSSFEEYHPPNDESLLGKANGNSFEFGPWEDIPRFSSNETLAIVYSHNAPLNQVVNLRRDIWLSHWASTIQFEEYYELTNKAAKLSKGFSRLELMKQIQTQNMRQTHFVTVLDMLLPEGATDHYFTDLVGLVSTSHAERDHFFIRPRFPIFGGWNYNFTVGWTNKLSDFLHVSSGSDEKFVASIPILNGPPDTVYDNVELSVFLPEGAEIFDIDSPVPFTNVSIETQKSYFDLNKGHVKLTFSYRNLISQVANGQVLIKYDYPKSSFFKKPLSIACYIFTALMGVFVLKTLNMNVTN
Assay: Competition Assay
Details: pH 7.5; 0 °C
Text: Competition assay using S. cerevisiae oligosaccharyl transferase (OT)with disaccharide donor Dol-P-P-(GlcNAc)2 and the tripeptide substrate Bz-Asn-Leu-Thr-NHMe.

Row | Ki | SMILES
1 | 0.062 µM | COC(=O)c1ccc(O)c2nc3c(C=O)c(O)cc(O)c3nc12 [6-formyl-4,7-dihydroxy-9-keto-5H-phenazine-1-carboxylic acid methyl ester]
2 | 4 µM | O=C(Nc1ccc(C2=NCCN2)cc1)c1ccc(C(=O)Nc2ccc(C3=NCCN3)cc2)c(Cl)c1
3 | 1.1 µM | COc1ccc(OC)c(Nc2nc(NCCCN(C)C)nc(N)c2[N+](=O)[O-])c1 [3-[[4-amino-6-(2,5-dimethoxyanilino)-5-nitro-pyrimidin-2-yl]amino]propyl-dimethyl-amine]
4 | 0.041 µM | Cc1c2oc3c(C)ccc(C(=O)N[C@@H]4C(=O)N[C@H](C(C)C)C(=O)N5CCC[C@H]5C(=O)N(C)CC(=O)N(C)[C@@H](C(C)C)C(=O)O[C@@H]4C)c3nc-2c(C(=O)N[C@@H]2C(=O)N[C@H](C(C)C)C(=O)N3CCC[C@H]3C(=O)N(C)CC(=O)N(C)[C@@H](C(C)C)C(=O)O[C@@H]2C)c(N)c1=O [2-amino-N,N''-bis[(3R,6S,7R,10S,16S)-3,10-diisopropyl-2,5,9,12,15-pentaketo-7,11,14-trimethyl-8-oxa-1,4,11,14-tetrazabicyclo[14.3.0]nonadecan-6-yl]-3-keto-4,6-dimethyl-phenoxazine-1,9-dicarboxamide] (I: T[dV]P[Sar][NMeV] / II: T[dV]P[Sar][NMeV]; ester I:1-I:C, II:1-II:C; linker I:N-II:N via Actinocin(9to1))
5 | 100 µM | COc1ccc(-n2cnnc2SCC(=O)Nc2cc(C)on2)cc1 [2-[[4-(4-methoxyphenyl)-1,2,4-triazol-3-yl]sulfanyl]-N-(5-methyl-1,2-oxazol-3-yl)acetamide]
6 | 34 µM | COc1ccc(NS(=O)(=O)c2ccc(NC(=O)C(CCSC)NC(N)=O)cc2)cc1 (stereo not drawn) [2-(aminocarbonylamino)-N-[4-[(4-methoxyphenyl)sulfamoyl]phenyl]-4-methylsulfanyl-butanamide]
7 | 2.5 µM | CC(=O)Nc1ccc(NC(=O)c2ccc(Cl)nc2)cc1 [Glycopeptide, 2]

Row | SMILES | Ki
8 | CC[N+](C)(CC)CCCCOc1ccc2c(c1)C(=O)c1cc(OCCCC[N+](C)(CC)CC)ccc1-2 [4-[7-[4-[diethyl(methyl)ammonio]butoxy]-9-keto-fluoren-2-yl]oxybutyl-diethyl-methyl-ammonium;iodide] | 4.5 µM
